Measured values reported in patent US8367700B2, “Substituted 4-(1.2,3,4-tetrahydroisoquinolin-2-yl)-4-oxobutyric acid amide as KCNQ2/3 modulators” (Gruenenthal GmbH, priority 2008, dated 2013).

How the values were obtained:
hKCNQ2/3 [1] = biological target: T1, hKCNQ2/3 (Homo sapiens, UniProt O43525+O43526); experiment: Fluorescence assay using a voltage-sensitive dye (fluorimetry); format: cell-based; parameters: expressed in transfected cells; host or cells: CHO-K1; conditions: CHO-K1 cells expressing KCNQ2/3
T1 sequence (O43526 whole entry): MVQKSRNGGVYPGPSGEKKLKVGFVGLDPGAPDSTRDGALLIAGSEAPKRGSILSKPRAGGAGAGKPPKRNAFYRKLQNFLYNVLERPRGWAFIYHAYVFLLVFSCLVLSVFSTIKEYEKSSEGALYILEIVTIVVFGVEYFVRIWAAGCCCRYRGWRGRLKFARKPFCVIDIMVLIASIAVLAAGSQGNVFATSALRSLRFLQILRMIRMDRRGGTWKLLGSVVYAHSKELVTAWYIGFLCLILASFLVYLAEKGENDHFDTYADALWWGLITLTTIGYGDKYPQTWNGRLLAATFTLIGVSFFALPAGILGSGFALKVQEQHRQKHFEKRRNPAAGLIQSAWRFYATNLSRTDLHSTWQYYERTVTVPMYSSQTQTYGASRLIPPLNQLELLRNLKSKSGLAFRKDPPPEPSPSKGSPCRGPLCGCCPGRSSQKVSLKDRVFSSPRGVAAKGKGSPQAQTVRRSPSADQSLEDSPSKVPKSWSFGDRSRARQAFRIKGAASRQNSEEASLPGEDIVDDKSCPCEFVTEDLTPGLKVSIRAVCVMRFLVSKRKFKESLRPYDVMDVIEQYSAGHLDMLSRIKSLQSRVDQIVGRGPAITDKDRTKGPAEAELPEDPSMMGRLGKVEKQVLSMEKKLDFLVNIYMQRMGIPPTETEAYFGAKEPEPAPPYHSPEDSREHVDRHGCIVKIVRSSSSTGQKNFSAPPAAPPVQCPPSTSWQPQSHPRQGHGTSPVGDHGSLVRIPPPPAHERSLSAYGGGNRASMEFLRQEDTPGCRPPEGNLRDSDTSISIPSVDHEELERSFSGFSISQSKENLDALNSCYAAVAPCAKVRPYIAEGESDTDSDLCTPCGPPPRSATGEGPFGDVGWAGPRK
T1 sequence (O43525 whole entry): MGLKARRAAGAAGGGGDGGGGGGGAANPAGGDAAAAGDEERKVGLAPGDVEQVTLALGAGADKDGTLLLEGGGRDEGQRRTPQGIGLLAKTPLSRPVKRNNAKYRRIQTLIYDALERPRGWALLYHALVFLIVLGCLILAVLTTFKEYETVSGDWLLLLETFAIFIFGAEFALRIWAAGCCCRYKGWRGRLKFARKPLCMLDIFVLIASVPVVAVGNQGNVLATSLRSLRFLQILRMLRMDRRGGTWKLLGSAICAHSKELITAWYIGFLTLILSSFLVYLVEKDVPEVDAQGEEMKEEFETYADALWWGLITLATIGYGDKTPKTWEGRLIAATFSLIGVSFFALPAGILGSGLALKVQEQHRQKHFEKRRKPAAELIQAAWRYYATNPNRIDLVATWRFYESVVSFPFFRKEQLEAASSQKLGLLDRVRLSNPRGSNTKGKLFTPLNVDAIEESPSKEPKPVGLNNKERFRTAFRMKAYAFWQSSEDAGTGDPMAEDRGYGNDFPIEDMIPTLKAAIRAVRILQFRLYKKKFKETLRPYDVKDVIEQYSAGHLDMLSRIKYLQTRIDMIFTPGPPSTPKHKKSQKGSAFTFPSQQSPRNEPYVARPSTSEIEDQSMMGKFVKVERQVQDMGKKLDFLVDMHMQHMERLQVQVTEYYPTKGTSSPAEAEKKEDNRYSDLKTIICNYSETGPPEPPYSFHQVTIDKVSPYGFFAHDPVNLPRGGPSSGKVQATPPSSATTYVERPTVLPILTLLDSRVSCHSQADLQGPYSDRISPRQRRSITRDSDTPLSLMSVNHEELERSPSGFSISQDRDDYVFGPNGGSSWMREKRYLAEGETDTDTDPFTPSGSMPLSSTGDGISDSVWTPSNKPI
Experimental: Pharmacological Experiments Fluorescence Assay Using a Voltage-Sensitive Dye
Human CHO-K1 cells expressing KCNQ2/3 channels are cultivated adherently at 37° C., 5% CO2 and 95% humidity in cell culture bottles (e.g. 80 cm^2 TC flasks, Nunc) with DMEM-high glucose (Sigma Aldrich, D7777) including 10% FCS (PAN Biotech, e.g. 3302-P270521) or alternatively MEM Alpha Medium (1×, liquid, Invitrogen, #22571), 10% foetal calf serum (FCS) (Invitrogen, #10270-106, heat-inactivated) and the necessary selection antibiotics.
Before being sown out for the measurements, the cells are washed with a 1×DPBS buffer without Ca^2+/Mg^2+ (e.g. Invitrogen, #14190-094) and detached from the bottom of the culture vessel by means of Accutase (PAA Laboratories, #L11-007) (incubation with Accutase for 15 min at 37° C.). The cell count then present is determined using a CASY™ cell counter (TCC model, Scharfe System) in order subsequently to apply 20,000 to 30,000 cells/well/100 μl of the described nutrient medium, depending on density optimisation for the individual cell line, to 96-well measuring plates of the Corning™ CeIIBIND™ type (flat clear-bottom black polystyrene microplates, #3340).
Incubation is then carried out for one hour at room temperature, without gassing or adjusting the humidity, followed by incubation for 24 hours at 37° C., 5% CO2 and 95% humidity.
The voltage-sensitive fluorescent dye from the Membrane Potential Assay Kit (Red™ bulk format part R8123 for FLIPR, MDS Analytical Technologies™) is prepared by dissolving the contents of a vessel of Membrane Potential Assay Kit Red Component A in 200 ml of extracellular buffer (ES buffer, 120 mM NaCl, 1 mM KCl, 10 mM HEPES, 2 mM CaCl2, 2 mM MgCl2, 10 mM glucose; pH 7.4). After removal of the nutrient medium, the cells are washed with 200 μl of ES buffer, then covered with a layer of 100 μl of the dye solution prepared above and incubated for 45 min at room temperature with exclusion of light.
The fluorescence measurements are carried out with a BMG Labtech FLUOstar™ BMG Labtech NOVOstar™ or BMG Labtech POLARstar™ instrument (525 nm excitation, 560 nm emission, bottom-read mode). After incubation of the dye, 50 μl of the substances to be tested in the desired concentrations, or 50 μl of ES buffer for control purposes, are introduced into separate cavities of the measuring plate and incubated for 30 min at room temperature whilst being shielded from light. The fluorescence intensity of the dye is then measured for 5 min and the fluorescence value F1 of each well is thus determined at a given, constant time. 15 μl of a […] KCl solution ([…]) are then added to each well. The change in fluorescence is subsequently measured until all relevant measured values have been obtained (mainly 5-30 min). At a given time after KCl application, a fluorescence value F2 is determined, in this case at the time of the fluorescence peak.
For calculation, the fluorescence intensity F2 is compared with the fluorescence intensity F1, and the agonistic activity of the target compound on the potassium channel is determined therefrom. F2 and F1 are calculated as follows: […]
In order to determine whether a substance has an agonistic activity,
[formula] for example, can be compared with
[formula] of control cells.
[formula] is determined by adding to the reaction batch only the buffer solution instead of the substance to be tested, determining the value F1K of the fluorescence intensity, adding the potassium ions as described above and measuring a value F2K of the fluorescence intensity. Then F2K and F1K are calculated as follows: […]
A substance has an agonistic activity on the potassium channel if
[formula] is greater than
Independently of the comparison of
[formula] it is also possible to conclude that a target compound has an agonistic activity if an increase in
[formula] is to be observed as the dosage of the target compound increases. […]

hKCNQ2/3 [2] = biological target: T1, hKCNQ2/3; experiment: Voltage-clamp (patch-clamp) measurements on stably transfected hKCNQ2/3 CHO-K1 cell line; format: cell-based; parameters: expressed in transfected cells; host or cells: CHO-K1 (stably transfected); conditions: 10 μM test substance at −40 mV, current increase normalised against retigabine (10 μM), read-out: Patch-clamp % Efficacy @ 10 μM (Retigabine = 100%)
Experimental: Voltage-Clamp Measurements
In order to confirm a KCNQ2/3 agonistic action of the substances electrophysiologically, patch-clamp measurements (Hamill O P, Marty A, Neher E, Sakmann B, Sigworth F J: Improved patch-clamp techniques for high-resolution current recording from cells and cell-free membrane patches, Pfluger's Arch. 1981 August; 391(2):85-100) were performed in voltage-clamp mode on a stably transfected hKCNQ2/3 CHO-K1 cell line. After formation of the gigaseal the cells were first clamped at a holding potential of −60 mV. Depolarising voltage jumps up to a potential of +20 mV were then applied (increment: 20 mV, duration: 1 second) in order to confirm the functional expression of KCNQ2/3-typical currents. The substances were tested at a potential of −40 mV. First of all the current increase induced by retigabine (10 μM) at −40 mV was recorded on each cell as a positive control. After completely washing out the retigabine effect (duration: 80 s) the test substance (10 μM) was applied. The current increase induced by the test substance was normalised against the retigabine effect and stated as the relative efficacy (see below).

rat = experiment: Formalin test in the rat; format: in vivo, Sprague Dawley rats; conditions: phase II (21-27 min after formalin administration)
Experimental: The formalin test (Dubuisson, D. and Dennis, S. G., 1977, Pain, 4, 161-174) is a model for acute and chronic pain. In the tests described here, the chronic pain component (phase II of the formalin test; time interval 21-27 min after formalin administration) was analysed.
A single formalin injection into the dorsal side of one rear paw was used to induce a biphase nociceptive response in experimental animals allowed to move freely, and the response was recorded by observation of three clearly distinguishable behaviour patterns.
Formalin is administered subcutaneously in a volume of 50 μl and a concentration of 5% into the dorsal side of the right rear paw of each animal. The vehicle and the substances to be tested are administered intravenously 5 minutes before or orally 30 minutes before the formalin injection.
The specific behavioural changes, such as lifting and shaking the paw, shifting of weight by the animal and biting and licking responses, are observed and recorded continuously for 60 minutes after formalin administration. The behavioural changes are weighted differently (score 0-3) and a pain rate (PR) calculated using the formula below: PR=[(T0×0)+(T1×1)+(T2×2)+(T3×3)/180.
Sprague Dawley rats (Janvier, Belgium) are used as the phylum. The weight of the animals is between 180 and 200 g. The group size was n=10.

Emax at 10 µM (hKCNQ2/3 [1]; 10 μM, relative to retigabine = 100%, read-out: Fluorimetry % Efficacy @ 10 μM (Retigabine = 100%)): 110%
EC50 (hKCNQ2/3 [1]): 1900 nM
Emax at 10 µM (hKCNQ2/3 [2]): 78%
SMILES: O=C(CCC(=O)N1CCc2ccccc2C1c1ccccc1)NCc1cccc(C(F)(F)F)c1 (stereo not shown) [Example compound 1, 4-Oxo-4-(1-phenyl-3,4-dihydroisoquinolin-2(1H)-yl)-N-(3-(trifluoromethyl)benzyl)butyric acid amide]
Formalin test rat i.v. @ 4.64 mg/kg % Reduction of nociceptive behaviour (rat): 40%
